Data on 2 compounds can be found in patent publication US20200123495A1, “COMPOSITION AND METHOD FOR CONTROLLING INSECTS AND MICR[…] PSEUDOMONAS […]” (Academia Sinica, priority 2014, published 2020).

One assay concerns Drosophila melanogaster. To be noted: previous study, Liu et al. 2010; cited from earlier work.
The nature of assay [1]: CAS plate assay (removal of iron from the CAS dye). The conditions noted are these: 1.2 and 1.5 mg pyoverdine on CAS agar plates. As for the experimental part:
Chrome azurol S (CAS) is a universal method that detects the mobilization of iron, which assays siderphores production. To prepare 100 ml CAS dye, 60.5 mg CAS powder (Sigma) was dissolved in 50 ml distilled water and mixed with 10 ml of 1 mM iron solution (anhydration FeCl3, Alfa Aesar). Then, 40 ml of 72.9 mg HDTMA (Sigma) was added slowly to 60 ml CAS solution with FeCl3 and autoclaved to sterilize. After CAS cool down can be hand held, one-tenth of CAS solution mixed with LP agar medium and immediately poured into plates.
Different concentration of purified pyoverdine was injected into the hole (5 mm) of CAS plates. Plates were incubated at 28° C. for 6 h or until yellow halo appearance.

Assay [2] deals with Xanthomonas oryzae pv. oryzae (Xoo).

Consider “recombinant TccC: TccC gene from P. taiwanensis overexpressed in E. coli (SEQ ID NO:2)”, for which, in the assay with Drosophila melanogaster, the “mortality in Drosophila larvae” value is “increase the mortality”.

Consider `C[C@@H](O)[C@@H](NC(=O)[C@@H](NC(=O)[C@H](CCCCN)NC(=O)[C@@H](CO)NC(=O)C1CCN=C2C(NC(=O)CCC(=O)O)=Cc3cc(O)c(O)cc3N21)C(O)c1c[nH]cn1)C(=O)N[C@@H](CO)C(=O)N[C@H]1CCCN(O)C1=O` (stereo partly drawn) [pyoverdine, Q-DSer-Lys-OHHis-aDThr-Ser-cOHOrn], for which the CAS reaction rate entry in assay [1] is on record as “rapidly detected”. In addition, in assay [2], the “IC50 toward Xoo (inhibition of cell growth)” value is recorded as “about 2.035 mg/ml” and the “LD50 against Xoo (lethal dose)” value is on record as “about 1.98 mg/ml”.
